Reference: US20170044150A1, “IDENTIFICATION OF COMPOUNDS WHICH INHIBIT ATG8-ATG3 PROTEIN-PROTEIN INTERACTION AND THEIR USE AS ANTIPARASITICAL AGENTS” (THE JOHNS HOPKINS UNIVERSITY, priority 2014, published 2017)
Like-named read-outs stand apart in the source and are kept apart here.

Key:
[1] = molecular target: PfAtg8-PfAtg3 interaction (Plasmodium falciparum, UniProt Q8IJK2); format: binding, P. falciparum
P. falciparum 3D7 = experiment: SYBR Green I growth inhibition assay, blood stage; format: cell-based; conditions: Plasmodium falciparum
Procedure: P. falciparum blood stage culturing. P. falciparum 3D7 and FCR3 cultures were maintained using modified, previously published methods at 37° C., 2% hematocrit of human red blood cells (Science 1976, 193, 673-675). Complete culture media consisted of sterile RPMI 1640 media (Life Technologies), supplemented with 10% human serum, 0.005% hypoxanthine, and buffered with final concentrations of 0.6% HEPES and 0.26% NaHCO3. The FCR3 strain was maintained at 3% CO2 and 5% O2, 92% N2 atmosphere, while the 3D7 strain was maintained at 5% CO2, 5% O2, 90% N2 atmosphere.
SYBR Green I growth inhibition assay. 10 μL of 10× compound diluted in RPMI 1640 media (Gibco) with a constant concentration of 1% DMSO was added to a 96 well plate (Costar), 90 μL of 1.5% ring stage, synchronized with 5% w/v sorbitol P. falciparum 3D7 parasites, 1% hematocrit, in culture media with 10% v/v human serum with 10 μg/mL gentamycin. Each compound concentration and 1% v/v DMSO controls were run in triplicate. Plates were incubated at 37° C. in 5% O2, 5% CO2 and 90% N2 for 72 hours. Plates were frozen, thawed, and incubated with 100-μL 2× SYBR green in lysis buffer (20 mM Tris pH 7.5, 5 mM EDTA, 0.008% Saponin, 0.08% TritonX-100) in the dark for at least one hour. Fluorescence was measured with a plate reader (HTS 7000, Perkin Elmer) at excitation/emission wavelengths of 485/535 nm.
Plasmodium parasite growth inhibition assay. P. falciparum 3D7 parasites were cultured as previously described (J Med Chem 57:4521-4531(2014)). Briefly, the parasites were cultured in 10% v/v human serum with 10 μg/mL gentamycin and synchronized with 5% w/v sorbitol. 1.5% ring stage parasites were added to 96 well plates (Costar) containing serial dilutions, performed in triplicate, of compound in RPMI 1640 media (Gibco). Plates were incubated at 37° C. in 5% O2, 5% CO2, and 90% N2 for 72 h. Plates were frozen, thawed, and incubated with 100 μL 2× SYBR green in lysis buffer (20 mM Tris pH 7.5, 5 mM EDTA, 0.008% Saponin, 0.08% TritonX-100) in the dark for 1 h. Fluorescence was measured with a plate reader (HTS 7000, PerkinElmer) at excitation/emission wavelengths of 485/535 nm.

PfAtg8^CM [2] = molecular target: T1, PfAtg8^CM (Plasmodium falciparum, UniProt Q8IJK2); experiment: SPR binding of PfAtg8^CM to immobilized compound 8; design: species or system P. falciparum
T1 construct: rows headed: KD; other: immobilized compound
T1 sequence (Q8IJK2 1-124 C32I/C119S/C122S): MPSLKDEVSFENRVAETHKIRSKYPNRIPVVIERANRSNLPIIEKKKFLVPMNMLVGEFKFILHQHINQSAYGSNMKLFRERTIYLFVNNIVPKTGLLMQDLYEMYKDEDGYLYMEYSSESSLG
Procedure: (§1) Direct binding of compound 8 to PfAtg8^CM. Compound 8 was injected over a neutravidin-coated SPR chip (GE Healthcare) on one flowcell, with 130 RUs immobilized, while BACH was injected over a reference flowcell (150 RUs immobilized). His6-PfAtg8^CM, Human LC3, or His6-PfAtg3 was injected in duplicate in running buffer containing 10 mM HEPES pH 7.5, 150 mM NaCl, 0.05% P20. Protein was dissociated from the chip after each cycle with 10 μL injection of 20 mM HEPES pH 7.4, 1% w/v SDS regeneration solution.
(§2) Synthesis of a novel PTA derivative with a functional handle. […] A PTA-benzaldehyde derivative, 4-formyl-N-(4-pyridin-2-yl-1,3-thiazol-2-yl)benzamide (compound 7) was synthesized with a functional handle extending off the common hydrophobic ring system (Table 1, Scheme 1). Compound 7 was prepared from commercially available PTA and 4-formyl benzoic acid through a DCC-promoted amide coupling. Compound 7 can be tethered through a dialkoxyamine linker to a library of aldehydes and screened using our primary SPR competition assay against the PfAtg8-PfAtg3 interaction. In docking studies, compound 7 bound the W- and L-site of PfAtg8 in a fashion similar to compound 2, with the functional handle positioned towards the A-loop pocket (FIG. 7A). A gain in parasite selectivity for such bifunctional analogs is expected as the A-loop is missing in the human Atg8 homologues. […]

hLC3 = molecular target: T2, hLC3 (Homo sapiens, UniProt Q9GZQ8); experiment: SPR binding of hLC3 to immobilized compound 8
T2 construct: made in house
Procedure: as §1, §2

PfAtg3 = molecular target: T3, PfAtg3 (Plasmodium falciparum, UniProt C0H519); experiment: SPR binding of PfAtg3 to immobilized compound 8; conditions: data not shown
T3 construct: made in house
T3 sequence (C0H519 1-313): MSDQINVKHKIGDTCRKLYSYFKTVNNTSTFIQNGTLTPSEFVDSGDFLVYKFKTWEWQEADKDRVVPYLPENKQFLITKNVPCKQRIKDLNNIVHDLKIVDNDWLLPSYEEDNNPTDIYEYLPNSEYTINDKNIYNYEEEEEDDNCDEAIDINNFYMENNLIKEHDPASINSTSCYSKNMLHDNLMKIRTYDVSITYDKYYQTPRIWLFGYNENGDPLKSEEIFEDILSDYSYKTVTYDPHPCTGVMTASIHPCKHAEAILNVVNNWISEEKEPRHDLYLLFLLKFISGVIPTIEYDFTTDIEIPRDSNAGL
Procedure: as §1, §2

P. falciparum 3D7-GFP = format: cell-based; conditions: for decrease in the proportion of infected hepatocytes (GFP+/PI- cells): 72 hours post infection
Procedure: In vitro infection of human hepatocytes with P. falciparum 3D7-GFP. The HC-04 cell line (ATCC, Manassas, Va., USA) was maintained in complete medium (IMDM containing 2.5% FCS, 100 units/ml penicillin, 100 μg/ml streptomycin and 2 mM L-glutamine, all from GIBCO®, Life Technologies, Grand Island, N.Y.). P. falciparum 3D7-GFP parasite strain (PLoS ONE 2010, 5, e9156) was propagated in the Parasitology Core facility, the Johns Hopkins Malaria Research Institute. In vitro infection of human hepatocytes was done as described previously (PLoS ONE 2013, 8, e75321). Briefly, salivary glands were sequestered from infected Anopheles gambiae mosquitoes at day 17 after exposure to infective blood meal and homogenates were separated on an OptiPrep™ Density Gradient (Sigma-Aldrich, St. Louis, Mo.) at 12,000×g for 10 minutes. Sporozoites were collected from the gradient interface, washed in complete medium, counted using a hemocytometer and incubated with HC-04 cells at 3:1 sporozoite to hepatocyte ratio for 2 hours at 37° C. […]
Detection of P. falciparum exoerythrocytic forms in vitro. HC-04 human hepatocyte cell line (ATCC, Manassas, Va., USA) was maintained in complete medium (IMDM containing 2.5% FCS, 100 units/ml penicillin, 100 μg/ml streptomycin and 2 mM L-glutamine, all from GIBCO®, Life Technologies, Grand Island, N.Y.). P. falciparum 3D7HT-GFP parasite strain (PLoS One. 5(2):e9156. doi:10.1371/journal.pone.0009156 (2010)) was propagated in the Parasitology Core facility of the Johns Hopkins Malaria Research Institute. In vitro infection of human hepatocytes, and detection and quantification of P. falciparum 3D7HT-GFP EEFs by flow cytometry were performed as previously described (PLoS One. 8(9):e75321. doi:10.1371/journal.pone.0075321 (2013)).

HC-04 cells = experiment: HC-04 hepatocyte viability / cytotoxicity (Annexin-V, PI flow cytometry); format: cell-based, human; conditions: 30 μM
Procedure: Detection of Annexin-V positive and PI-positive cells in hepatocyte cultures was done by flow cytometry according to the manufacturer's instruction (Invitrogen™, Life Technologies, Grand Island, N.Y., USA).
Hepatocyte cytotoxicity assay. Hepatocyte cytotoxicity assays were carried out in triplicate at two concentrations of inhibitory compounds using HC-04 cells as previously described. Flow cytometry was used to assess two cytotoxicity markers via staining, namely propidium iodine (PI) and Annexin-V.

PfAtg8 = experiment: Immunoblot analysis of PfAtg8 in P. falciparum blood stage cultures; format: cell-based; conditions: for lipidation of PfAtg8: 12 hours
Text: Immunoblot analysis of P. falciparum blood stage. […] RBCs were harvested with centrifugation, lysed with 0.2% saponin, and RBC lysate was removed through three 1× PBS washes. Parasites were harvested by centrifugation and washed in 1× PBS with Complete EDTA-free protease inhibitors (Roche) and lysed by repeated vortexing and boiling in SDS reducing sample buffer. […] HRP-conjugated secondary antibodies (Southern Biotech) were detected by SuperSignal West Femto (Thermo Scientific) or Amersham™ ECL™ Prime (GE Healthcare) chemiluminescent substrate. AP-conjugated secondary antibodies (EMD Millipore) were detected using NBT/BCIP (Promega) colorimetric stain. Total protein levels were visualized with ProAct™ Membrane Stain (Amresco) and quantified with ImageJ. Parasite morphology at time of harvesting was visualized with light microscopy at 100× magnification on Olympus BX53 system microscope (Olympus America, Inc.).

P. yoelii liver stage = conditions: screening concentration 10 μM; cited from earlier work
human cell lines = conditions: cited from earlier work
PfAtg8^CM [3] = molecular target: PfAtg8^CM (Plasmodium falciparum, UniProt Q8IJK2); experiment: SPR direct binding of compound 1 to immobilized His12-PfAtg8^CM; design: other: 2-fold dilution series, highest 75 μM; fused on or other part: N-terminal His12 tag; species or system P. falciparum; conditions: 2-fold dilution series, highest 75 μM
Procedure: His12-PfAtg8^CM was injected over an NTA-chip (GE Healthcare) preconditioned with nickel, leading to capture of 3,000 response units (RUs). Running buffer contained 3% DMSO. A 2-fold-dilution series of compounds, highest concentration of 75 μM, was injected over PfAtg8 variants at 40 μL/minute.
Determination of the PTA binding site on PfAtg8. The inventors tested whether these compounds bound directly to PfAtg8 using SPR. PfAtg8^CM was immobilized onto an SPR Ni-NTA chip via a twelve histidine N-terminal tag. […] It was then sought to determine the binding site for the PTA compounds with in silico docking.

[4] = 3D7, no asterisk, read-out: IC50 Blood stage

SMILES	LEAN (SPR) ([1]; -log (IC50)/number of heavy atoms)	IC50 ([1]; read-out: IC50 SPR, inhibition of PfAtg8-PfAtg3 interaction)	IC50 (P. falciparum 3D7; [4])	Kd (PfAtg8^CM [2])	Kd (hLC3)	binding of recombinant PfAtg3 (PfAtg3)	IC50 (P. falciparum 3D7; 3D7, third experiment, read-out: IC50)	IC50 (P. falciparum 3D7; 3D7, two of three independent experiments, read-out: IC50)	IC50 (P. falciparum 3D7; 3D7, two to three experiments, read-out: average IC50)	intensity of GFP fluorescence (P. falciparum 3D7-GFP; 3 μM and 30 μM, 72 hours)	decrease in the proportion of infected hepatocytes (GFP+/PI- cells) (P. falciparum 3D7-GFP; 3 μM)	decrease in the proportion of infected hepatocytes (GFP+/PI- cells) (P. falciparum 3D7-GFP; 30 μM)	cell death in HC-04 cells (HC-04 cells)	lipidation of PfAtg8 (PfAtg8; 5 μM)	lipidation of PfAtg8 (PfAtg8; 25 μM and 50 μM)	PfAtg8 protein levels (PfAtg8; 50 μM, five hours)	mobility of PfAtg8 (PfAtg8; 50 μM, five hours)	inhibition in P. yoelii liver stage cultures (P. yoelii liver stage)	reported cytotoxicity in human cell lines (human cell lines)	SPR response, direct binding to PfAtg8^CM (PfAtg8^CM [3])
O=C(CCCC[C@H]1SC[C@H]2NC(=O)N[C@H]21)NCCCCCC(=O)NNCc1ccc(C(=O)Nc2nc(-c3ccccn3)cs2)cc1 [Compound 8, 4-[[2-[6-[5-[(3aR,4R,6aS)-2-Oxo-1,3,3a,4,6,6a-hexahydrothieno[3,4-d]imidazol-4-yl]pentanoylamino]hexanoyl]hydrazinyl]methyl]-N-(4-pyridin-2-yl-1,3-thiazol-2-yl)benzamide]	0.22	2660 nM	1480 nM	540 nM	18000 nM	did not bind														
Cc1ccc(Nc2nc(-c3ccccn3)cs2)cc1 [Compound 1, N-(4-methylphenyl)-4-pyridin-2-yl-1,3-thiazol-2-amine]			1470 nM				3300 nM	768 nM	1610 ± 1470 nM	dose-dependent reduction	but not 3 μM	~50%	did not observe cell death	dose-dependent decrease in lipidation	unlipidated PfAtg8 is exclusively detected	drastic increase	shift in mobility, likely corresponding to the unlipidated form of PfAtg8	≤ 50%	much lower than that of compounds 2 or 3	dose-dependent increase in SPR response
